Source: PubChem BioAssay (NCI)
Where “and” joins values, the source holds several entries; their conditions need not be identical. Identical values can stand only once.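 Grown in 96-well plates, cells were treated for 48 hours with each compound at five concentrations. Insufficient inhibition: endpoint recorded as highest concentration tested. Abbreviation: GI50, concentration required for 50% inhibition of growth. TGI marks complete inhibition of growth.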

Tests used:
Assay in all cases: inhibition of tumour cell growth, NCI panel, 48 h
[1] = system: NCI-H226 lung
[2] = system: HOP-92 NSCLC
[3] = system: UACC-62 melanoma
[4] = system: SK-MEL-5 melanoma
[5] = system: ACHN renal
[6] = system: KM12 colon
[7] = system: 786-0 renal
[8] = system: SK-MEL-28 melanoma
[9] = system: K-562 leukemia
[10] = system: SN12C renal

SMILES	TGI [1] [µM]	TGI [2] [µM]	TGI [3]	TGI [4] [µM]	TGI [5] [µM]	TGI [6] [µM]	TGI [7] [µM]	TGI [8] [µM]	TGI [9] [µM]	TGI [10] [µM]	GI50 [1] [µM]	GI50 [2] [µM]	GI50 [3] [µM]	GI50 [4] [µM]	GI50 [5] [µM]	GI50 [6] [µM]	GI50 [7] [µM]	GI50 [8] [µM]	GI50 [9] [µM]	GI50 [10] [µM]
CSc1ccc(C(=O)C(=O)c2ccc(SC)s2)s1	> 10	> 10	> 10 µM	> 10	> 10	> 10	> 10	> 10	> 10	> 10										
CC(=O)N(Cc1ccccc1)c1ccccc1I(=O)=O	> 100	67.5	> 100 µM	> 100	> 100	> 100	> 100	> 100	29.5	> 100	> 100	13.3	> 100	33.6	36	42	57.8	34.5	14	> 100
CC(C)C(=O)Oc1cc2c(=O)oc3c(OC(=O)C(C)C)c(OC(=O)C(C)C)cc4c(=O)oc(c1OC(=O)C(C)C)c2c34	> 100	> 100	> 100 µM	> 100	> 100	> 100	> 100	> 100	> 100	> 100										
N[C@@H]1CCCC[C@@H]1N.O=P([O-])([O-])CN(CP(=O)([O-])[O-])CP(=O)([O-])[O-].[Pt+2]	> 100	> 100	> 100 µM	> 100	> 100	> 100	> 100	> 100	> 100	> 100	> 100	> 100	> 100	> 100	> 100	> 100	> 100	> 100	> 100	> 100
Cc1cc(Cl)cc2c1NC(=O)C2=O (tested in a mixture with another compound)	> 100	> 100	41.6 µM	> 100	> 100	> 100	> 100	> 100	> 100	> 100										
Cc1cc([N+](=O)[O-])c(C)c(Br)c1C	> 100	> 100	> 100 µM	> 100	> 100	> 100	> 100	> 100	> 100	> 100										
Cc1cc(Cl)ccc1NS(=O)(=O)c1ccc(-c2cnc(C3CC3)o2)cc1	16.5	13	17.1 µM	6.88	20.5	15.3	17.5	22.8	> 100	16.5	1.04	1.05	0.169	0.517	0.649	0.211	0.561	4.9	0.0723	0.578
Nc1ccc2c(c1)c(N)nn2C(=O)Nc1ccc(Cc2ccccc2)cc1	38.3	24.4	12.6 µM	19.8	13.7	15.1	25.9	27.8	11.4	30.9	16.1	10.4	2.9	6.52	3.37	3.34	12.4	13.7	2.24	13.4
C=[CH][Sn]([CH]=C)([O]c1cccc2cccnc12)[O]c1cccc2cccnc12	9.47	19.5	2.5 µM	5.44	14.1	7.34	9.29	10.5	> 24.9	17.5	2.95	6.52	0.964	1.94	3.26	3.2	3.31	4.03	2.73	4.45
CC1CC[C@]2(C(=O)O)CCC3(C)C(=CCC4[C@@]5(C)CC[C@H](OS(=O)(=O)c6ccccc6)C(C)(C)C5CC[C@]43C)[C@@H]2[C@H]1C (stereo partly specified)	> 100	> 100	> 100 µM	> 100	> 100	> 100	> 100	> 100	> 100	> 100										
CC1=NN(C(=O)c2ccccc2O)C(=O)/C1=C/c1cccc([N+](=O)[O-])c1	> 100	> 100	27.1 µM	> 100	> 100	> 100	> 100	> 100	> 100	98.7										
COc1ccccc1NC(=O)C(CC(C(=O)Nc1ccccc1OC)/C(C)=N/Nc1ccc([N+](=O)[O-])cc1[N+](=O)[O-])/C(C)=N/Nc1ccc([N+](=O)[O-])cc1[N+](=O)[O-] (stereo unspecified)	> 100	> 100	> 100 µM	> 100	> 100	> 100	> 100	> 100	> 100	> 100										
COc1cc(/C=C(\C#N)C(N)=C(C#N)C#N)cc(O)c1O	> 100	> 100	> 100 µM	> 100	> 100	> 100	> 100	> 100	> 100	> 100										
Nc1ccc(S(=O)(=O)Nc2cnc3c(Cl)cccc3n2)cc1	> 750	544	> 93.3 µM and 122 µM	> 627	> 750	709	> 750	723	> 750	> 750	> 75.6		56.3			99.6		> 69.4	36.4	> 81.5
CCN(CC)CCN(C(=O)C(C)(C)C)c1ccccc1N	> 100	> 100	> 100 µM	> 100	> 100	> 100	> 100	> 100	> 100	> 100										
Cc1nc(-n2nc(-c3ccccc3)cc2-c2ccccc2)sc1C(/C=C/c1ccc([N+](=O)[O-])cc1)=N/NC(=O)c1ccncc1	56.9	54.8	81.1 µM	63.7	> 100	22.4	37	99.2	> 100	> 100										
